Results on 10 molecules are retold here after patent US20120202793A1, “RHO KINASE INHIBITORS” (priority 2009, published 2012).

One experiment deals with ROCK 1 (Homo sapiens, UniProt Q13464). The experiment in a line: Inhibition of Rho kinase ROCK 1 (Tables 2.1-2.4). It counts as biochemical. The protocol:
(§1) Inhibitory activity for Rho kinase was determined for examples of compounds of the present invention. Inhibition of Rho kinase can be assayed as described. For each of these compounds their inhibitory activity for both ROCK1 and ROCK2 was determined.
(§2) The IC50 values (in μM) for each of these compounds show a selectivity for inhibiting ROCK2.

The target in the next experiment is ROCK 2 (Homo sapiens, UniProt O75116). Nature of the experiment: Inhibition of Rho kinase ROCK 2 (Tables 2.1-2.4). In kind it is biochemical. As to the method: as §1, §2
Another experiment deals with ROCK2. The experiment in a line: Inhibition of phosphorylation of S6 Long Peptide by ROCK1 and ROCK2 (33P filter assay), selective inhibition of ROCK2. In kind it is biochemical. As to the method:
Filtration was done in 96 well filter plates containing phosphocellulose cation exchange paper (Millipore, Cat#MAPHNOBIO).
The reaction was incubated for 40 minutes at room temperature and stopped with 25 ul 3% phosphoric acid. Reaction was then transferred to a filter plate wet with 75 mM phosphoric acid. The plate was then washed three times with 75 mM phosphoric acid and once with methanol. […] IC50 values were determined using Graphpad Prism.

A short description of experiment [1]: Attenuation of weight gain, C57BL/6 mice consuming a high fat diet. In kind it is in vivo. As to the method: The ability of SLx-2119 to limit weight gain was evaluated by administration to C57BL/6, ApoE knockout, and leptin deficient mice as part of a high fat or low fat diet.
Three groups of 10 mice each were initially fed a control diet for a week. Two groups were then switched to a high fat diet in which 42% of the calories were from fat. SLx-2119 was included in the diet of one of the two groups. The third group continued on the control diet. Fasting glucose levels were measured during the first week (all groups consuming the control diet), and again during the third and sixth week.

Experiment [2] can be described thus: Glucose tolerance in C57BL/6 mice after 54 days on diet. It counts as in vivo. The conditions noted are these: high fat diet with compound, meal after overnight fast, FIG. 14. The text has this: Separate groups of C57BL/6 mice were fed as above, and evaluated for glucose tolerance after 54 days. All mice were fed the same meal |what is the meal| after an overnight fast. […] (FIG. 14)

Experiment [3] can be described thus: Attenuation of weight gain in ApoE (−/−) and C57BL/6 mice on high fat diet. Particulars: 0.1% in the diet from the fourth week, FIG. 15. In kind it is in vivo. The source says:
(§3) In a different experiment, ApoE (−/−) deficient mice were compared with C57BL/6 mice. All mice were initially fed a control diet for one week, and a high fat diet for the following 11 weeks. At the start of the fourth week, half of the C57BL/6 mice and half of the ApoE (−/−) mice were supplemented with 0.1% SLx-2119 in the diet.

A short description of experiment [4]: Fasting insulin and glucose levels in ApoE (−/−) and C57BL/6 mice on high fat diet. It counts as in vivo.
Excerpt: as §3
The reductions in fasting insulin levels were accompanied by reductions in fasting blood glucose levels. (FIG. 18, bottom).

The nature of experiment [5]: Attenuation of weight gain in Leptin deficient (ob−/ob−) mice, low fat or high fat diet. In kind it is in vivo. The protocol: The effect of SLx-2119 on weight gain in Leptin deficient (ob^−/ob^−) mice fed a low fat (normal) or high fat diet was also measured. […] The leptin deficient mice gained considerably more weight than normal 057BL/6 mice fed the low fat diet.
The leptin deficient mice consuming the high fat diet gained weigh at about four times the rate of normal mice on a low fat diet. […] As with the low fat diet, caloric intake was quite a bit higher in the ob^−/ob^− mice, whether or not they received SLx-2119. (FIG. 23).

Experiment [6] can be described thus: Attenuation of hyperinsulinemia in Leptin deficient (ob−/ob−) mice. In kind it is in vivo. The source says: Leptin deficient (ob^−/ob^−) mice were maintained on a normal (control), or a high fat diet with or without SLx-2119. […] Attenuation of hyperinsulinemia was similarly observed in ob^−/ob^− mice maintained on a low fat diet (FIG. 26).
Experiment [7] in a line: Body weight of rats fed a low fat diet. It counts as in vivo. The text has this:
The effect of SLx-2119 supplementation on body weight of rats fed a low fat diet was also investigated.

The IC50 is the concentration at which inhibition is half-maximal.

Chain of ROCK 2 (O75116 whole entry, species assumed): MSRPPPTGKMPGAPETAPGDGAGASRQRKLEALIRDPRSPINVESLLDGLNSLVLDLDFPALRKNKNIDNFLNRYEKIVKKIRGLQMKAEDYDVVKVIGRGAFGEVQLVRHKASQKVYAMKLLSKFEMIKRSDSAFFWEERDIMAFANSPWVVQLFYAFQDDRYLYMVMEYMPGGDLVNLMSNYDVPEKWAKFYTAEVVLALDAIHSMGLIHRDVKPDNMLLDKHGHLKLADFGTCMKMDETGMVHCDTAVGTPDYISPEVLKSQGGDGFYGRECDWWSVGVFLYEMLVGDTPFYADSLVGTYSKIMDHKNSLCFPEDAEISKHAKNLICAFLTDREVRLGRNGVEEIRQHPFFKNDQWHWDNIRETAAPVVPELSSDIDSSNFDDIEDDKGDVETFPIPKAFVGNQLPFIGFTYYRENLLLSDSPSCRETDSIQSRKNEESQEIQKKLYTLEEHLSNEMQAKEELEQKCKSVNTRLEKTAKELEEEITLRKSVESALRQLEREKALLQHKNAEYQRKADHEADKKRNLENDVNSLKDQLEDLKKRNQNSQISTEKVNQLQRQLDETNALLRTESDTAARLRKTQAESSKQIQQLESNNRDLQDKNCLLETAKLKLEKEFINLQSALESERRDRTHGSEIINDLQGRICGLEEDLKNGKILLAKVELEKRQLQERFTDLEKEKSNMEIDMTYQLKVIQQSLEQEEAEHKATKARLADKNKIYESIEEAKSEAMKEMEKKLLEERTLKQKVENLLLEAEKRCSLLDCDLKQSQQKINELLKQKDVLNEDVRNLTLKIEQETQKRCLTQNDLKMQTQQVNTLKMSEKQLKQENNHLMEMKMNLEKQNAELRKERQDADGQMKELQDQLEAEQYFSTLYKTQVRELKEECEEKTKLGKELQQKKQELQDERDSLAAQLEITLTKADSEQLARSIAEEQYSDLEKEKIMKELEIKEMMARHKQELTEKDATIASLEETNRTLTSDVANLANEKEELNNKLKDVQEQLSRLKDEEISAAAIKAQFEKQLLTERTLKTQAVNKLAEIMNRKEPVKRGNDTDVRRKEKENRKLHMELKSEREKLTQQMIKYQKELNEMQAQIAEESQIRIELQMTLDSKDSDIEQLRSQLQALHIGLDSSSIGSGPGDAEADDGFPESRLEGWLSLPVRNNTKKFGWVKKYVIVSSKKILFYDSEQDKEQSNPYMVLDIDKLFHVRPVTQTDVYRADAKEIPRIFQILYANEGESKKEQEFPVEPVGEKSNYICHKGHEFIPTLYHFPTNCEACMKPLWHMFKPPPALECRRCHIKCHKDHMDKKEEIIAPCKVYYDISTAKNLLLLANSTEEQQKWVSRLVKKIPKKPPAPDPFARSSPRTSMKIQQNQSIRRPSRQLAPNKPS
Chain of ROCK 1 (Q13464 whole entry, species assumed): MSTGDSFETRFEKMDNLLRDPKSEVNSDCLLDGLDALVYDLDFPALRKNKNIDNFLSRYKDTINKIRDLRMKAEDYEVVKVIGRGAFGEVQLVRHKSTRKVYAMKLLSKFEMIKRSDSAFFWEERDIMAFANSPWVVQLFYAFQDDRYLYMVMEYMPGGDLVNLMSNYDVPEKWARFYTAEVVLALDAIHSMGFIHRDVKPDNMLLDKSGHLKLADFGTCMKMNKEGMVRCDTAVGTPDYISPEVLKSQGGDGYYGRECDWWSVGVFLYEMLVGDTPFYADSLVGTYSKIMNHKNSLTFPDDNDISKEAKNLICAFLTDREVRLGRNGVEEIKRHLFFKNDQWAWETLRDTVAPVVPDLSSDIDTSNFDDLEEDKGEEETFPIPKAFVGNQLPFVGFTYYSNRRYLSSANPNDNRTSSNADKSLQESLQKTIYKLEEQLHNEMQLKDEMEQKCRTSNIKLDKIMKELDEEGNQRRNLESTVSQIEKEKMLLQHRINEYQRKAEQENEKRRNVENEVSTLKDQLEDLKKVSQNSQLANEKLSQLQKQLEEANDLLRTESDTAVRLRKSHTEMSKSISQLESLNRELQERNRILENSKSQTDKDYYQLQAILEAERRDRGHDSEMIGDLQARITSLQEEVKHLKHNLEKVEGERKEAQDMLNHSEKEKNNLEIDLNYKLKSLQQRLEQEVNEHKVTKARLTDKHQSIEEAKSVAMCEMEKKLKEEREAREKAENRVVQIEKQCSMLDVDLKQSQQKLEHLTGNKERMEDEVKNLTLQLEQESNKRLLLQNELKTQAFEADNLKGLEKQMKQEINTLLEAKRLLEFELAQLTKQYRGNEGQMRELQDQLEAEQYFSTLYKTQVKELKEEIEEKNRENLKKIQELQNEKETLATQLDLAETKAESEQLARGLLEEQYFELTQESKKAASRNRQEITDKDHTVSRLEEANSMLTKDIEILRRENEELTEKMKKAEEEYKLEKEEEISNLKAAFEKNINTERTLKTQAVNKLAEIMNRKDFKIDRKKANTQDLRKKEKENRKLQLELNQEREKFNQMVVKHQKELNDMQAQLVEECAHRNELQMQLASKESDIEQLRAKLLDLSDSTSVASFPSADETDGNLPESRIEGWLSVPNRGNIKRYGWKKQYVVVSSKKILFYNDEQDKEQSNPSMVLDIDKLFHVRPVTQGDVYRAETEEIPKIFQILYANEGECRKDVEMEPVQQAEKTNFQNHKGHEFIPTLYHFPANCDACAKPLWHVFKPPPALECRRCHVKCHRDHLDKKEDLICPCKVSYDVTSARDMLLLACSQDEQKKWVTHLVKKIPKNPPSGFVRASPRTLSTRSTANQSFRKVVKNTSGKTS

As to `COCCNC(=O)COc1cccc(-c2nc(Nc3ccc4[nH]ncc4c3)c3ccccc3n2)c1` [Example 54, 2-(3-(4-(1H-indazol-5-ylamino)quinazolin-2-yl)phenoxy)-N-(2-methoxyethyl)acetamide], the results for the IC50 at ROCK 1 and at ROCK 2 were more than 10000 nM and 150 nM, respectively.
Taken in the same sequence, the figures for `O=C(COc1cccc(-c2nc(Nc3ccc4[nH]ncc4c3)c3ccccc3n2)c1)Nc1cccnc1` [Example 55, 2-(3-(4-(1H-indazol-5-ylamino)quinazolin-2-yl)phenoxy)-N-(pyridin-3-yl)acetamide] were more than 10000 nM and 90 nM.
For the molecule `NC(=O)COc1cccc(-c2nc(Nc3ccc4[nH]ncc4c3)c3ccccc3n2)c1` [Example 84, 2-(3-(4-(1H-indazol-5-ylamino)quinazolin-2-yl)phenoxy)acetamide], the half-inhibitory concentration (IC50) was 2600 nM against ROCK 1 and 520 nM against ROCK 2.
Take `CCCC(=O)Nc1cccc(-c2nc(Nc3ccc4[nH]ncc4c3)c3cc(OCCN(C)C)ccc3n2)c1` [Example 141, N-(3-(4-(1H-indazol-5-ylamino)-6-(2-(dimethylamino)ethoxy)quinazolin-2-yl)phenyl)butyramide]: the IC50 against ROCK 1 was more than 1000 nM; against ROCK 2 it was 40 nM.
Regarding `CCCC(=O)Nc1cccc(-c2nc(Nc3ccc4[nH]ncc4c3)c3cc(OCCCN4CCOCC4)c(OC)cc3n2)c1` [Example 160, N-(3-(4-(1H-indazol-5-ylamino)-7-methoxy-6-(3-morpholinopropoxy)quinazolin-2-yl)phenyl)butyramide], the IC50 is more than 3000 nM at ROCK 1 and 50 nM against ROCK 2.
Regarding `COc1cc2nc(-c3cccc(NC(=O)CN4CCOCC4)c3)nc(Nc3ccc4[nH]ncc4c3)c2cc1OCCN1CCCC1` [Example 167, N-(3-(4-(1H-Indazol-5-ylamino)-7-methoxy-6-(2-(pyrrolidin-1-yl)ethoxy)quinazolin-2-yl)phenyl)-2-morpholinoacetamide], the figures for the IC50 at ROCK 1 and at ROCK 2 were more than 3000 nM and 60 nM, respectively.
On to `CCCC(=O)Nc1cccc(-c2nc(Nc3ccc4[nH]ncc4c3)c3ccc(OCCOC)cc3n2)c1` [Example 263], for which the IC50 is more than 3000 nM against ROCK 1 and 90 nM at ROCK 2.
On to `CC(=O)Oc1cccc(-c2nc(Nc3ccc4[nH]ncc4c3)c3ccccc3n2)c1` [Example 272], for which the figures for the IC50 on ROCK 1 and on ROCK 2 were more than 10000 nM and 570 nM, respectively.
Regarding `C[C@@H](N)[C@H]1CC[C@H](C(=O)Nc2ccncc2)CC1` [Example Y-27632], in the experiment on ROCK2, the “inhibition of ROCK2 compared with ROCK1” value is recorded as “to the same extent”.
`CC(C)NC(=O)COc1cccc(-c2nc(Nc3ccc4[nH]ncc4c3)c3ccccc3n2)c1` [SLx-2119]: the weight gain entry was “not distinguishable from the control mice” in [1] (high fat diet (42% of calories from fat) supplemented with compound, versus control diet mice, FIG. 11); “no distinguishable effect” in experiment [5] (normal C57BL/6 mice, low fat diet, FIG. 19); “reduced by half” in [5] (ob−/ob− mice, high fat diet, FIG. 22); “gained only half as much weight” in experiment [5] (ob−/ob− mice, low fat diet, versus ob−/ob− mice without compound, FIG. 19). Further, the “average caloric intake of untreated high fat diet mice relative to control and treated groups” value in experiment [1] (high fat diet, FIG. 12) is recorded as “only slightly higher”. For the same molecule, the “glucose levels following feeding” value in [2] was “increased relative to mice maintained on the control diet, but not as high as in mice that did not receive SLx-2119”. The “recovery of glucose levels” value in experiment [2] is on record as “quickly recovered to a normal level”. Moreover, the “weight gain less than in mice that did not receive the supplement” value in experiment [3] (ApoE (−/−) mice) came to 50%; in [3] (C57BL/6 mice), 33%. Moreover, the “fasting blood glucose levels” value in [4] (C57BL/6 and ApoE (−/−) mice, FIG. 18 bottom) was “reductions”; in [6] (high fat diet, FIG. 25) it was “reduced to normal levels”. Also, the fasting insulin levels entry in experiment [4] (normal C57BL/6 mice, FIG. 18 top) is recorded as “reduction”; in [6] (high fat diet, FIG. 25), “significantly reduced”. Moreover, the hyperinsulinemia entry in [6] (low fat diet, FIG. 26) was “Attenuation”. Moreover, in [7] (FIG. 27), the “reduction of body weight gain” value is on record as “about 6%”. Moreover, the caloric intake entry in [7] (FIG. 28) is “little or no change”.
